Reference: ChEMBL document CHEMBL5543083, “3,5-Disubstituted-thiazolidine-2,4-dione hybrids as antidiabetic agents: Design, synthesis, in-vitro and In vivo evaluation” (Eur J Med Chem, 2024)
Converted amounts (≈) assume the structure as drawn. The source made the active and inactive calls. No cut-off for these calls is given here.

Tests used:
Alpha amylase = biological target: T1, Alpha amylase (Homo sapiens, UniProt P0DUB6); assay: Inhibition of Alpha-amylase (unknown origin); assay type: protein assay
T1 sequence (P0DUB6 whole entry): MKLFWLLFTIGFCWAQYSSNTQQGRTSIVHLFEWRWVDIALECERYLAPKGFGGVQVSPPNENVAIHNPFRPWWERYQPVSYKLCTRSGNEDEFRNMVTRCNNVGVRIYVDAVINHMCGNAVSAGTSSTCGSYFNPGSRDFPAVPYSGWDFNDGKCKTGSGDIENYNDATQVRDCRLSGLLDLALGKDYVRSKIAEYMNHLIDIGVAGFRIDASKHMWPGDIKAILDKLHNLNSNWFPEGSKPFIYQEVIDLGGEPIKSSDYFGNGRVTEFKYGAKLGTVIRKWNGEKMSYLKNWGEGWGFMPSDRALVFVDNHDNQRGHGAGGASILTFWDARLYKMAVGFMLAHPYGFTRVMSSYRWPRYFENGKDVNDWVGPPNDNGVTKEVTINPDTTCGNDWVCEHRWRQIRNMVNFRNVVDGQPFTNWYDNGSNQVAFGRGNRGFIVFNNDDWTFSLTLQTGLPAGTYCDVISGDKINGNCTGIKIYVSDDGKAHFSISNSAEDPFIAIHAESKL

[1] = Antioxidant activity assessed as DPPH radical scavenging activity; assay type: functional
Alpha-glucosidase = Alpha-glucosidase (Saccharomyces cerevisiae S288c, UniProt P53341+P38158+P07265); assay: Inhibition of yeast Alpha glucosidase 4-nitrophenyl-alpha-D-glucopyranoside incubated for 15 to 20 mins by Bio-rad microplate reader analysis; assay type: protein assay
Alpha-amylase = biological target: T2, Alpha-amylase (Sus scrofa domesticus, UniProt Q7M328); assay: Inhibition of porcine pancreatic Alpha-amylase using starch as substrate preincubated for 10 mins followed by substrate addition and measured after 15 mins by Bio-rad microplate reader analysis; conditions: read-out: IC50
T2 sequence (Q7M328 whole entry): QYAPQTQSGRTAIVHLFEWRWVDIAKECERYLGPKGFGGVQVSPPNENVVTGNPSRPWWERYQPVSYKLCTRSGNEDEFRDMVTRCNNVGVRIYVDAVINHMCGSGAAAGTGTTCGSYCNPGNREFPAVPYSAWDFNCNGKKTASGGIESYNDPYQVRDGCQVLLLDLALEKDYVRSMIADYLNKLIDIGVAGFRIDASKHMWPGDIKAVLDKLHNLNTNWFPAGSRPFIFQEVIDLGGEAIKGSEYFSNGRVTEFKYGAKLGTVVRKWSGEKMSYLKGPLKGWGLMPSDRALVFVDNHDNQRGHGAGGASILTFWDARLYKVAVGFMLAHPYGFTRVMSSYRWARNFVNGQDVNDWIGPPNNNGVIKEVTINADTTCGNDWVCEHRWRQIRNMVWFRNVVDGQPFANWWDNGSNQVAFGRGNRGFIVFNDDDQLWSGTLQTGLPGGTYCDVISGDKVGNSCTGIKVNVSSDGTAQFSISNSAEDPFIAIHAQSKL

[2] = Antioxidant activity assessed as DPPH radical scavenging activity measured for 30 mins by spectrophotometric analysis; assay type: functional; conditions: read-out: IC50
PANC-1 [3] = assay: Cytotoxicity against human PANC-1 cells assessed as inhibition of cell growth; assay type: functional, cell-based; conditions: Homo sapiens, PANC-1; read-out: IC50
PANC-1 [4] = assay: Induction of ROS production in high glucose-induced human PANC-1 cells assessed as maximum fluorescence intensity at 10 uM incubated for 30 mins DCFDA-staining based flow cytometry analysis (reference value: 15.09); assay type: functional; conditions: 0.5 h
Rattus norvegicus [5] = assay: Antidiabetic activity against streptozotocin-induced Wistar rat assessed as decrease in blood glucose level at 10 mg/kg, po measured at 60 mins by oral glucose test; assay type: functional, organism-based
[6] = Toxicity in Wistar rat assessed as decrease in body weight at 10 mg/kg, po measured on day 14; assay type: organism-based; conditions: in vivo, 336 h, time 14 day
[7] = Toxicity in Wistar rat assessed as decrease in body weight at 10 mg/kg, po measured on day 35; assay type: organism-based; conditions: in vivo, 840 h, time 35 day
Rattus norvegicus [8] = assay: Antidiabetic activity against streptozotocin-induced Wistar rat assessed as effect on blood glucose level at 10 mg/kg, po measured on day 1; assay type: functional, organism-based; conditions: time 1.0 day
Rattus norvegicus [9] = assay: Antidiabetic activity against streptozotocin-induced Wistar rat assessed as effect on blood glucose level at 10 mg/kg, po measured on day 4; assay type: functional, organism-based; conditions: time 4.0 day
Rattus norvegicus [10] = assay: Antidiabetic activity against streptozotocin-induced Wistar rat assessed as increase in PPAR-gamma level at 10 mg/kg, po measured upto 35 days by ELISA analysis; assay type: functional, organism-based; conditions: time <= 35.0 day
Rattus norvegicus [11] = assay: Antidiabetic activity against Wistar rat assessed as decrease in total cholesterol level at 10 mg/kg, po measured upto 35 days; assay type: functional, organism-based; conditions: time <= 35.0 day
Rattus norvegicus [12] = assay: Antidiabetic activity against streptozotocin-induced Wistar rat assessed as decrease in HDL level at 10 mg/kg, po measured upto 35 days; assay type: functional, organism-based; conditions: time <= 35.0 day
Rattus norvegicus [13] = assay: Antidiabetic activity against streptozotocin-induced Wistar rat assessed as decrease in triglyceride level at 10 mg/kg, po measured upto 35 days; assay type: functional, organism-based; conditions: time <= 35.0 day
Rattus norvegicus [14] = assay: Antidiabetic activity against streptozotocin-induced Wistar rat assessed as decrease in MDA level at 10 mg/kg, po measured upto 35 days; assay type: functional, organism-based; conditions: time <= 35.0 day
Rattus norvegicus [15] = assay: Antidiabetic activity against streptozotocin-induced Wistar rat assessed as decrease in SOD level at 10 mg/kg, po measured upto 35 days; assay type: functional, organism-based; conditions: time <= 35.0 day
Rattus norvegicus [16] = assay: Antidiabetic activity against streptozotocin-induced Wistar rat assessed as effect on glutathione level at 10 mg/kg, po measured upto 35 days; assay type: functional, organism-based; conditions: time <= 35.0 day
Rattus norvegicus [17] = assay: Antidiabetic activity against Wistar rat assessed as effect on glutathione level at 10 mg/kg, po measured upto 35 days; assay type: functional, organism-based; conditions: time <= 35.0 day
Rattus norvegicus [18] = assay: Antidiabetic activity against streptozotocin-induced Wistar rat assessed as change in blood urea nitrogen level at 10 mg/kg, po measured upto 35 days; assay type: functional, organism-based; conditions: time <= 35.0 day
Rattus norvegicus [19] = assay: Antidiabetic activity against streptozotocin-induced Wistar rat assessed as change in BUN level at 10 mg/kg, po measured upto 35 days; assay type: functional, organism-based; conditions: time <= 35.0 day
Rattus norvegicus [20] = assay: Antidiabetic activity against Wistar rat assessed as increase in serum creatine level at 10 mg/kg, po measured upto 35 days; assay type: functional, organism-based; conditions: time <= 35.0 day
Rattus norvegicus [21] = assay: Antidiabetic activity against streptozotocin-induced Wistar rat assessed as increase in serum ALP level at 10 mg/kg, po measured upto 35 days; assay type: functional, organism-based; conditions: time <= 35.0 day
Rattus norvegicus [22] = assay: Antidiabetic activity against streptozotocin-induced Wistar rat assessed as change in serum SGOT level at 10 mg/kg, po measured upto 35 days; assay type: functional, organism-based; conditions: time <= 35.0 day
Rattus norvegicus [23] = assay: Antidiabetic activity against streptozotocin-induced Wistar rat assessed as change in serum SGPT level at 10 mg/kg, po measured upto 35 days; assay type: functional, organism-based; conditions: time <= 35.0 day
Rattus norvegicus [24] = assay: Antidiabetic activity against streptozotocin-induced Wistar rat assessed as increase in TNF-alpha level in Pancreas at 10 mg/kg, po measured upto 35 days; assay type: functional, organism-based; conditions: time <= 35.0 day
Rattus norvegicus [25] = assay: Antidiabetic activity against streptozotocin-induced Wistar rat assessed as increase in IL1-beta level in Pancreas at 10 mg/kg, po measured upto 35 days; assay type: functional, organism-based; conditions: time <= 35.0 day
[26] = Toxicity in streptozotocin-induced Wistar rat assessed as changes in organ to body weight ratio at 10 mg/kg, po measured up to 35 days; assay type: organism-based; conditions: in vivo, 840 h, time < 35 day
[27] = Toxicity in streptozotocin-induced Wistar rat assessed as decrease in basophil count at 10 mg/kg, po measured up to 35 days; assay type: organism-based; conditions: in vivo, 840 h, time < 35 day
[28] = Toxicity in streptozotocin-induced Wistar rat assessed as decrease in eosinophil count at 10 mg/kg, po measured up to 35 days; assay type: organism-based; conditions: in vivo, 840 h, time < 35 day
[29] = Toxicity in streptozotocin-induced Wistar rat assessed as change in blood lymphocyte count at 10 mg/kg, po measured up to 35 days; assay type: organism-based; conditions: in vivo, 840 h, time < 35 day
[30] = Toxicity in streptozotocin-induced Wistar rat assessed as morphological changes in pancrease at 10 mg/kg, po measured up to 35 days; assay type: organism-based; conditions: in vivo, 840 h, time < 35 day
[31] = Toxicity in streptozotocin-induced Wistar rat assessed as morphological changes in kidney at 10 mg/kg, po measured up to 35 days; assay type: organism-based; conditions: in vivo, 840 h, time < 35 day
[32] = Toxicity in streptozotocin-induced Wistar rat assessed as decrease in tubular necrosis in kidney at 10 mg/kg, po measured up to 35 days; assay type: organism-based; conditions: in vivo, 840 h, time < 35 day
[33] = Toxicity in streptozotocin-induced Wistar rat assessed as decrease in glomeruli shrinkage in kidney at 10 mg/kg, po measured up to 35 days; assay type: organism-based; conditions: in vivo, 840 h, time < 35 day
[34] = Toxicity in streptozotocin-induced Wistar rat assessed as decrease in dilation of renal tubules in kidney at 10 mg/kg, po measured up to 35 days; assay type: organism-based; conditions: in vivo, 840 h, time < 35 day

## O=C(O)CN1C(=O)S/C(=C\c2ccc3c(c2)OCO3)C1=O
Alpha amylase
  IC50: 10.26 µg/mL (≈ 33.4 µM)
[1]
  IC50: 10.78 µg/mL (≈ 35.1 µM)

## O=C1S/C(=C\c2ccc(Br)cc2)C(=O)N1Cc1cccc([N+](=O)[O-])c1
Alpha-glucosidase
  IC50: 20.02 µM
Alpha-amylase
  IC50: 23.9 µM
[2]
  IC50: 23.3 µM
PANC-1 [3]
  IC50: 62.2 µM
PANC-1 [4]
  Flu intensity: 1514
Rattus norvegicus [5]
  Activity: Active
[6]
  Activity: Non-Toxic
[7]
  Activity: Toxic
Rattus norvegicus [8]
  Activity: Active
Rattus norvegicus [9]
  Activity: Active
Rattus norvegicus [10]
  Activity: Active
Rattus norvegicus [11]
  Activity: Active
Rattus norvegicus [12]
  Activity: Active
Rattus norvegicus [13]
  Activity: Active
Rattus norvegicus [14]
  Activity: Active
Rattus norvegicus [15]
  Activity: Active
Rattus norvegicus [16]
  Activity: inactive
Rattus norvegicus [17]
  Activity: Active
Rattus norvegicus [18]
  Activity: Active
Rattus norvegicus [19]
  Activity: Active
Rattus norvegicus [20]
  Activity: Active
Rattus norvegicus [21]
  Activity: Active
Rattus norvegicus [22]
  Activity: Active
Rattus norvegicus [23]
  Activity: Active
Rattus norvegicus [24]
  Activity: Active
Rattus norvegicus [25]
  Activity: Active
[26]
  Activity: Non-Toxic
[27]
  Activity: Non-Toxic
[28]
  Activity: Non-Toxic
[29]
  Activity: Non-Toxic
[30]
  Activity: Non-Toxic
[31]
  Activity: Non-Toxic
[32]
  Activity: Non-Toxic
[33]
  Activity: Non-Toxic
[34]
  Activity: Non-Toxic
